One data set concerns db/db mice. As to the kind of experiment: Increase in HDL-cholesterol levels in db/db mice. The format is in vivo. As for the experimental part:
Increase in HDL-Cholesterol Levels in db/db Mice
In this experiment db/db mice were used in which PPARα expression is above normal (Memon et al., Endocrinology 2000, 4021-4031) and HDL-cholesterol levels are substantially elevated (Silver et al., J Biol Chem 1999, 274: 4140-4146).
The C57BL[KsJ db/db mice were acclimatised for one week in standard conditions (22±2° C.; 55±15% humidity; 15-20 air changes/hour; 12 hours light/darkness cycle with light from 7.00 a.m. to 7 p.m.) with a standard 4 RF21 diet (Mucedola). Blood samples were taken in post-absorption conditions (fasting from 8.30 a.m. to 4.30 p.m.) from the caudal vein with the aid of a Jelco 22G catheter (Johnson and Johnson). Glucose, insulin, triglyceride, cholesterol, free fatty acid and urea levels were checked in plasma for a homogeneous distribution of the mice in the treatment groups.
At the beginning of treatment the animals' body weight was checked and arrangements were made to monitor their water and feed consumption. […]
The compound tested, obtained as described in example 4 (ST 1929) was administered at the dose of 24 mg/kg in 10 ml/kg of vehicle (1% CMC containing Tween 80 0.5% in deionized H2O).
The other compounds tested were also administered at a dose equivalent to that in example 4.
Ciprofibrate, a known PPARα agonist (Varanasi et al., J Biol Chem 1996, 271: 2147-2155; Latruffe et al. Cell Biochem Biophys 2000, 32 Spring: 213-220) was administered at the dose of 20 mg/kg (Dwivedi et al., Toxicol Pathol 1989, 17: 16-26; Qi et al., Proc Natl Acad Sci USA 1999, 96: 1585-1590).
The animals were sacrificed (by decapitation) in conditions of post-absorption (fasting from 9.30 a.m. to 4.30 p.m.) 7 hours after the last treatment. The levels of a number of important lipid and carbohydrate metabolism parameters were determined in the serum.
The HDL-cholesterol levels were measured by treating the serum with phosphotungstic-acid-based precipitating reagent (ABX Diagnostics) which removes the chylomicrons, very low density and low density lipoproteins and determining the HDL-cholesterol levels in the supernatant with the aid of the Cholesterol Kit (ABX Diagnostics) and the Cobas Mira S Autoanalyzer (Roche).
In a further experiment, where the above reported ST2195 was used as reference compound, db/db mice were treated orally twice daily (8.30 a.m. and 6.30 p.m.) for 14 days with the test items (equimolar to 25 mg/kg of ST2 195) giving the following results reported in Table 3: […]

In data set [1] the test system is standard diet-fed c57bl/6j mice. As to the kind of experiment: Hypolipidemic activity in standard diet-fed c57bl/6j mice. Type of data set: in vivo. The conditions noted are these: 15 days, post-absorptive state, control 53.8 ± 4.2. As for the experimental part:
Standard Diet-Fed c57bl/6j Mice
ST2518 was evaluated in comparison with fenofibrate also in c57b1/6j mice fed with standard diet (Table 5).

Data set [2] concerns high-cholesterol diet-fed CD-1 mice. As to the kind of experiment: Hypolipidemic activity in high-cholesterol diet-fed CD-1 mice. The conditions noted are these: 16 days, post-absorptive state; for P-triglycerides: control 49 ± 3; for P-Cholesterol: control 350 ± 28. The format is in vivo. The method, then:
High-Cholesterol Diet-Fed CD-1 Mice
ST2518, fenofibrate, rosiglitazone and pioglitazone (PPARγ agonists) were administered by gavage, for 16 days, to CD-1 mice fed with high-cholesterol diet, and plasma parameters were evaluated in post-absorptive state.

The test system of a further data set is hAPO A I transgenic mice. Put plainly: Plasma lipid parameters in hAPO A I transgenic mice. Type of data set: in vivo. The conditions noted are these: 16 days, post-absorptive state; for P-triglycerides: control 75 ± 6. As for the experimental part: ST2518, fenofibrate and rosiglitazone were administered by gavage for 16 days, and plasma (p) parameters were evaluated in post-absorptive state.

The next data set has as its target T1, Gal4DBD/PPARαLBD (Homo sapiens, UniProt Q07869).
T1 construct: expressed in transfected cells; host or cells: COS-7 (monkey kidney fibroblasts)
T1 sequence (Q07869 239-466 limits assumed): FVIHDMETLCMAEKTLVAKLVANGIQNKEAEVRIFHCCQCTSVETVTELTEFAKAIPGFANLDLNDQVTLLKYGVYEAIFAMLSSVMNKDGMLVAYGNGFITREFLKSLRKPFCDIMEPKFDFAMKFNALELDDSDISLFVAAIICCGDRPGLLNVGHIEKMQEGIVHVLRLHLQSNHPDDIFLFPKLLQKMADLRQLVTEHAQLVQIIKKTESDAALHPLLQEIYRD
As to the kind of experiment: Transient transfection of COS-7 cells, Gal4DBD/PPARαLBD transactivation, CAT reporter (II method). Type of data set: cell-based. The conditions noted are these: read-out: percentage activation of the CAT reporter gene compared to reference compound WY-14.643 2 μM taken as 100%. An excerpt:
Transient Transfection of Eukaryotic Cells to Evaluate the Agonist Activity of PPARα Ligands (II Method)
An alternative transactivation system, which differs mainly in the way the receptor is positioned onto the DNA, and depending on how the event of ligand binding is translated into transcriptional activation, was used.
In this model eukaryotic cells were transiently transfected with an expression vector encoding a fusion protein between the DNA binding domain (DBD) of the yeast Gal4 transcription factor and the ligand binding domain (LBD) of the PPARα (Gal4DBD/PPARαLBD). The reporter vector containing 5 copies of the high affinity binding site for Gal4 (named UAS, upstream activating sequence) upstream of a strong viral promoter linked to the reporter gene chloramphenicol acetyltransferase (CAT), was co-transfected. This model offered some advantages, the most important of which was the absence of interference by endogenous receptors.
Besides expression and reporter vectors, cells were transfected with a control vector pCH110 that encodes the β-galactosidase enzyme to correct for differences in transfection efficiency.
A monkey kidney fibroblast cell line (COS-7) was used. Cells were co-transfected with the plasmid carrying the gene-reporter, the expression plasmid encoding the fusion protein Gal4DBD/PPARαLBD, and the control vector pCH110. Cells were then treated with increasing concentrations of test compounds and the CAT activity was measured. Untreated cells were used as control.
Monkey kidney fibroblasts (COS-7) were routinely grown in DMEM (Dulbecco's modified Eagle's medium) supplemented with 3.7 g/l sodium bicarbonate, 4 mM L-glutamine, 4.5 g/l glucose, 1 mM sodium piruvate and 10% v/v foetal bovine serum, in the presence of streptomycin 100 μg/ml and penicillin 100 U/ml.
COS-7 cells were transiently transfected by using the multi-component lipid-based FuGENE6 Transfection Reagent that complexes with and transports DNA into the cells during transfection. Cells were seeded at 1.2×10^5 cells/well, in 12-well plates, and cultured overnight at 37° C. in a 5% v/v carbon dioxide atmosphere. Two hours before transfection the culture medium was replaced by fresh serum-free medium and then transfection was performed with FuGENE6 Transfection Reagent according to the instructions of the manufacturer. Briefly, the transfection mixture containing (for each well) 0.8 μg of the expression vector, 1.6 μg of the reporter vector, 0.8 μg of the control vector and 9 μl of FuGENE6 Transfection Reagent was added directly to the cells in the presence of serum-free medium. After 5 hours the transfection medium was replaced by 1 ml of the complete culture medium with or without the test molecules at 3 different concentrations (2, 20 and 100 μM). 2 μM Wy-14,643, a known PPARα ligand, was used as positive control.
After 48 h, the cells were washed twice with 1 ml phosphate buffer (PBS) and then harvested by scraping them in TEN buffer (Tris [hydroxymethyl] aminomethane 10 mM pH 8, ethylenediamine tetraacetic acid 1 mM, pH 8, sodium chloride 0.1 M). Following centrifugation at room temperature, for 3 min at 1000 revs per minute (rpm), cells were resuspended with 60 μl of Lysis buffer (0.25M Tris-HCl, pH 8) and lysed by three rapid freeze/thaw cycles (three 5-minute cycles). Cell debris was then removed by centrifugating at 4° C., for 15 min at 15.000 revs per minute (rpm),. Glycerol (final 10% v/v) and β-mercaptoethanol (final 5 mM) were then added (final volume 75 μl) and the cell extracts were stored at −80° C. until assayed.
The CAT activity assay was performed as follows: 20 μl of cell lysate (pre-warmed at 65° C. for 10 min to deactivate internal deacetylase enzymatic activity) were added to 10 μl of 3.5 mg/ml n-butirryl-CoA, 5 μl ([…]) of [14C]-chloramphenicol and 65 μl of distilled H20 and incubated 2 h at 37° C. Reaction was blocked by adding 200 μl of the solution xylene/2,6,10,14 tetramethyl-pentadecane (in a 1:2 v/v mixture). […]

Marks after values point to notes of the source that are not given here.

Molecule `COC(=O)C(C)(C)Sc1ccc(OC(=O)NCc2ccc(OC)cc2)cc1` [ST2031, methyl 2-[4-[[(4-methoxybenzyl)carbamoyl]oxy]phenylthio]isobutyrate] displayed a melting point of 64 to 65 °C. Further, in the data set on db/db mice (oral twice daily, dose equivalent to 24 mg of ST1929, 10 days), the “Increase in HDL/cholesterol levels (%)” value was “+51 ▴ %”.

With `COc1ccc(OC(=O)N(CC(=O)O)Cc2ccc(OCCc3nc(-c4ccccc4)oc3C)cc2)cc1` [Muraglitazar, reference compound], in data set [1] (5 mg/kg/bid by gavage), the “Triglycerides (plasma)” value was 45.6 ± 3.4 mg/dL.

In data set [2] (20 mg/Kg/bid by gavage), `CCc1ccc(CCOc2ccc(CC3SC(=O)NC3=O)cc2)nc1` (centres unmarked) [pioglitazone] came in with a P-triglycerides of 43 ± 4 mg/dL and a P-Cholesterol of 345 ± 27 mg/dL.

As for `COC(=O)C(C)(C)Sc1ccc(OCCc2ccc(Cl)cc2Cl)cc1` [ST2531, methyl 2-[4-(2-(2,4-dichloro-phenyl)ethoxy)phenylthio]isobutyrate], the melting point was in the range of 73 to 74 °C.

The molecule `COC(=O)C(C)(C)Sc1cccc(O)c1` [ST2047, methyl 2-(3-hydroxyphenylthio)isobutyrate] gave a melting point of 41.5 to 42.5 °C.

Turning to `CN(CCOc1ccc(CC2SC(=O)NC2=O)cc1)c1ccccn1` (centres unmarked) [rosiglitazone, reference compound], the P-triglycerides with hAPO A I transgenic mice (5 mg/kg/bid by gavage) worked out at 74 ± 10 mg/dL. Moreover, the P-hdl-cholesterol in the data set with hAPO A I transgenic mice (5 mg/kg/bid by gavage, control 163 ± 6) was determined as 144 ± 18 mg/dL. In data set [2] (5 mg/Kg/bid by gavage), this molecule gave a P-triglycerides of 41 ± 3 mg/dL and a P-Cholesterol of 354 ± 23 mg/dL.

Consider `CC(C)OC(=O)C(C)(C)Oc1ccc(C(=O)c2ccc(Cl)cc2)cc1` [Fenofibrate, reference compound], for which the P-triglycerides in the data set with hAPO A I transgenic mice (26 mg/kg/bid by gavage) amounted to 78 ± 6 mg/dL; in data set [2] (26 mg/Kg/bid by gavage), 43 ± 3 mg/dL. For the same molecule, the “Increase in HDL/cholesterol levels (%)” value was “+18%” in the data set with db/db mice (24.7 mg/kg, 25 days) and “+56[…] %” in the data set on db/db mice (second experiment, 24.7 mg/kg, 16 days). In data set [2] (26 mg/Kg/bid by gavage), this molecule had a P-Cholesterol of 308 ± 18 mg/dL. Further, the “Triglycerides (plasma)” value is on record as 38.0 ± 2.9 Δ mg/dl in data set [1] (25 mg/kg/bid by gavage), 34.4 ± 2.7 Δ mg/dl in data set [1] (75 mg/kg/bid by gavage) and 36.0 ± 1.2 Δ mg/dl in data set [1] (125 mg/kg/bid by gavage).

In turn, `COC(=O)C(C)(C)Sc1ccc(OC(=O)Nc2ccc(C(F)(F)F)cc2)cc1` yielded a melting point of 110 to 111 °C.

In turn, `COC(=O)C(C)(C)Sc1cccc(OCc2ccc(-c3ccc([N+](=O)[O-])cc3)o2)c1` [ST2501, methyl 2-[3-[5-(4-nitrophenyl)furfuryl-oxy]phenylthio]isobutyrate] had a melting point of 81 to 82 °C. Moreover, the activation at 2 µM at Gal4DBD/PPARαLBD (2 μM) stood at 85.7%. In addition, at Gal4DBD/PPARαLBD (20 μM), the activation at 20 µM turned out to be 288%. Moreover, at Gal4DBD/PPARαLBD (100 μM), the activation at 100 µM was found to be 231%.

Take `CC(C)(Sc1ccc(O)cc1)C(=O)O` [ST1981, 2-(4-hydroxyphenylthio)isobutyric acid]: the melting point was in the range of 152 to 154 °C.

`COC(=O)C(C)(C)Sc1cccc(OC(=O)Nc2ccc(C(F)(F)F)cc2)c1`: the melting point lay within 66 to 67 °C.

The values are drawn from patent publication US20080027098A1, “Derivatives of alpha-phenylthiocarboxylic and alpha-phenyloxy-carboxylic acids useful for the treatment of diseases responding to PPARalpha activation” (SIGMA-TAU INDUSTRIE FARMACEUTICHE RIUNITE S.p.A., priority 2002, published 2008).
